Assays:
Assay in all cases: relative viability (nuclei count vs DMSO), 5 days (fraction); higher = more cells survive
Wnt-C59 + Decitabine = compound: CC1=NC=CC(=C1)C2=CC=C(C=C2)CC(=O)NC3=CC=C(C=C3)C4=CN=CC=C4 [Wnt-C59] + Nc1ncn([C@H]2C[C@H](O)[C@@H](CO)O2)c(=O)n1 [Decitabine] (partner 2 µM)
How it was run: (§1)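 Relative viability equals treated-well nuclei counts divided by vehicle-well nuclei counts. Counts came from 4× images of lung cancer cell lines grown in 1536-well plates for 5 days after pin-tool dosing on the day after seeding. Dosing used one drug alone or a fixed anchor-drug dose plus five library-drug doses (not always all listed) in √10 steps, and values are medians of duplicate plates.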

Wnt-C59 + AZD7762 = compound: CC1=NC=CC(=C1)C2=CC=C(C=C2)CC(=O)NC3=CC=C(C=C3)C4=CN=CC=C4 [Wnt-C59] + NC(=O)Nc1cc(-c2cccc(F)c2)sc1C(=O)N[C@H]1CCCNC1 [AZD7762] (partner 0.2 µM)
How it was run: as §1

Wnt-C59 + Lapatinib = compound: CC1=NC=CC(=C1)C2=CC=C(C=C2)CC(=O)NC3=CC=C(C=C3)C4=CN=CC=C4 [Wnt-C59] + CS(=O)(=O)CCNCc1ccc(-c2ccc3ncnc(Nc4ccc(OCc5cccc(F)c5)c(Cl)c4)c3c2)o1 [Lapatinib] (partner 2 µM)
How it was run: as §1

Lapatinib + Navitoclax = compound: CS(=O)(=O)CCNCc1ccc(-c2ccc3ncnc(Nc4ccc(OCc5cccc(F)c5)c(Cl)c4)c3c2)o1 [Lapatinib] + CC1(C)CCC(c2ccc(Cl)cc2)=C(CN2CCN(c3ccc(C(=O)NS(=O)(=O)c4ccc(N[C@H](CCN5CCOCC5)CSc5ccccc5)c(S(=O)(=O)C(F)(F)F)c4)cc3)CC2)C1 [Navitoclax] (partner 0.5 µM)
How it was run: as §1

Cell Line | relative viability (Wnt-C59 + Decitabine; first compound 0.001 µM) | relative viability (Wnt-C59 + Decitabine; first compound 0.01 µM) | relative viability (Wnt-C59 + Decitabine; first compound 0.03162 µM) | relative viability (Wnt-C59 + Decitabine; first compound 0.1 µM) | relative viability (Wnt-C59 + AZD7762; first compound 0.001 µM) | relative viability (Wnt-C59 + AZD7762; first compound 0.01 µM) | relative viability (Wnt-C59 + AZD7762; first compound 0.03162 µM) | relative viability (Wnt-C59 + AZD7762; first compound 0.1 µM) | relative viability (Wnt-C59 + Lapatinib; first compound 0.001 µM) | relative viability (Wnt-C59 + Lapatinib; first compound 0.01 µM) | relative viability (Wnt-C59 + Lapatinib; first compound 0.03162 µM) | relative viability (Wnt-C59 + Lapatinib; first compound 0.1 µM) | relative viability (Lapatinib + Navitoclax; first compound 0.02 µM) | relative viability (Lapatinib + Navitoclax; first compound 0.06325 µM) | relative viability (Lapatinib + Navitoclax; first compound 0.2 µM) | relative viability (Lapatinib + Navitoclax; first compound 0.6325 µM) | relative viability (Lapatinib + Navitoclax; first compound 2 µM)
NCI-H522 | 0.707 | 0.739 | 0.782 | 0.666 | 0.857 | 0.863 | 0.877 | 0.637 | – | – | – | – | – | – | – | – | –
NCI-H650 | 0.346 | 0.286 | 0.308 | 0.329 | 0.883 | 1.03 | 0.969 | 1.24 | 0.532 | 0.846 | 0.895 | 0.873 | – | – | – | – | –
NCI-H460 | 0.503 | 0.488 | 0.594 | 0.465 | 0.554 | 0.605 | 0.568 | 0.673 | 0.863 | 0.999 | 1.11 | 0.889 | 0.966 | 1.08 | 1.08 | 1.11 | 1.1
HCC-827 | 0.399 | 0.331 | 0.385 | 0.334 | 0.274 | 0.27 | 0.219 | 0.175 | 0.188 | 0.163 | 0.191 | 0.203 | 1 | 0.944 | 1.08 | 0.974 | 0.981
NCI-H647 | 0.379 | 0.456 | 0.393 | 0.288 | 0.554 | 0.389 | 0.502 | 0.472 | 1.04 | 1.08 | 1.21 | 1.04 | – | 1.14 | 1.05 | 1.04 | 0.963
SW 1573 | 0.449 | 0.453 | 0.583 | 0.537 | – | – | – | – | 1.06 | 0.906 | 1.05 | 1.12 | 0.902 | 0.974 | 1.16 | 0.92 | 0.882
NCI-H2170 | 0.47 | 0.516 | 0.506 | 0.474 | 0.762 | 0.688 | 0.992 | 0.836 | 0.265 | 0.262 | 0.275 | 0.271 | 0.546 | 0.393 | 0.287 | 0.218 | 0.184
NCI-H358 | 0.223 | 0.207 | 0.295 | 0.213 | 0.448 | 0.582 | 0.588 | 0.617 | 0.44 | 0.524 | 0.474 | 0.456 | – | – | – | – | –
COR-L 105 | 0.613 | 0.618 | 0.663 | 0.586 | – | – | – | – | 0.342 | 0.381 | 0.407 | 0.358 | 0.701 | 0.744 | 0.77 | 0.574 | 0.302
PC-3 [JPC-3] | 0.853 | 0.847 | 0.849 | 0.841 | 0.883 | 1.05 | 0.758 | 0.927 | 0.465 | 0.459 | 0.447 | 0.496 | – | 0.797 | 0.779 | 0.885 | 0.689
NCI-H1993 | 0.597 | 0.594 | 0.64 | 0.66 | 0.965 | 0.665 | 1.05 | 0.769 | 0.734 | 0.832 | 0.852 | 0.825 | 0.831 | – | 0.618 | 0.69 | 0.51
NCI-H1734 | 0.501 | 0.452 | 0.558 | 0.523 | 0.589 | 0.517 | 0.641 | 0.543 | 0.948 | 1.04 | 1.09 | 1.02 | – | 0.691 | 0.802 | 0.88 | 0.778
ChaGo-K-1 | 0.56 | 0.484 | 0.534 | 0.534 | 0.893 | 0.844 | 0.955 | 0.901 | – | – | – | – | – | 1.15 | 0.781 | 0.99 | 0.457
LU99A | 0.943 | 0.937 | 0.897 | 0.878 | 0.374 | 0.491 | 0.338 | 0.313 | 0.905 | 0.999 | 1.07 | 0.97 | 0.829 | 0.63 | 0.805 | 0.886 | 0.725
ABC-1 | 1.08 | 1.14 | 1.05 | 0.938 | 0.89 | 0.686 | 0.488 | 0.518 | 1.1 | 1.18 | 1.14 | 1.19 | – | – | – | – | –
HCC-44 | 1.01 | 0.963 | 0.95 | 0.939 | 1.07 | 0.952 | 0.97 | 1.01 | 1.01 | 1.03 | 1.01 | 1.03 | 0.874 | 0.89 | 0.995 | 0.949 | 0.768
NCI-H1650 | 0.494 | 0.482 | 0.407 | 0.408 | – | – | – | – | 0.761 | 0.74 | 0.708 | 0.698 | 1.06 | 1.11 | 1.24 | 1.01 | 0.761
NCI-H596 | 0.996 | 0.918 | 1.07 | 1.42 | 1.06 | 1.03 | 0.987 | 1.08 | 1.07 | 1.1 | 1.2 | 1.13 | 0.978 | 0.95 | 0.922 | 0.97 | 0.706

Source: the supplement of paper PMC10307832
